In ChEMBL document CHEMBL1201862, “PubChem BioAssay data set” (2004):
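Five compound concentrations were applied to cells in 96-well plates for 48 hours; endpoints were derived by simple linear interpolation of the resulting dose-response curve. GI50 marks 50% less growth.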 Activity calls are given as the source filed them. No stated cut-off is given here; in the data, active = GI50 up to about 1.1 µM and inactive = higher.

Tests used:
Assay in all cases: inhibition of tumour cell growth, NCI panel, 48 h
NCI-H522 = test system: NCI-H522
MDA-N = test system: MDA-N
UACC-257 = test system: UACC-257
HOP-92 = test system: HOP-92
NCI/ADR-RES = test system: NCI/ADR-RES
CCRF-CEM = test system: CCRF-CEM
UACC-62 = test system: UACC-62
UO-31 = test system: UO-31
NCI-H460 = test system: NCI-H460
MOLT-4 = test system: MOLT-4
NCI-H226 = test system: NCI-H226
BT-549 = test system: BT-549
ACHN = test system: ACHN
A549 = test system: A549
SW-620 = test system: SW-620
SNB-19 = test system: SNB-19
RPMI-8226 = test system: RPMI-8226
HL-60 = test system: HL-60
SF-268 = test system: SF-268
SN12C = test system: SN12C

Compound | GI50 (NCI-H522) | GI50 (MDA-N) | GI50 (UACC-257) | GI50 (HOP-92) | GI50 (NCI/ADR-RES) | GI50 (CCRF-CEM) | GI50 (UACC-62) | GI50 (UO-31) | GI50 (NCI-H460) | GI50 (MOLT-4) | GI50 (NCI-H226) | GI50 (BT-549) | GI50 (ACHN) | GI50 (A549) | GI50 (SW-620) | GI50 (SNB-19) | GI50 (RPMI-8226) | GI50 (HL-60) | GI50 (SF-268) | GI50 (SN12C)
O=C(CCc1ccccc1)NCCc1ccc(O)c(O)c1 | 5.26 µM (inactive) | 14.8 µM (inactive) | 44.6 µM (inactive) | 17.4 µM (inactive) | 28.4 µM (inactive) | 1.42 µM (inactive) | 34.3 µM (inactive) | 4.57 µM (inactive) | 46.9 µM (inactive) | 3.89 µM (inactive) | 21.2 µM (inactive) | 7.01 µM (inactive) | 14.2 µM (inactive) | 47.5 µM (inactive) | > 100 µM (inactive) | 48.9 µM (inactive) | 2.54 µM (inactive) | 3.43 µM (inactive) | 33.8 µM (inactive) | 36 µM (inactive)
CN1CCN(CC(=O)Nc2cccc3ccccc23)CC1 | > 100 µM (inactive) | > 100 µM (inactive) | > 100 µM (inactive) | > 100 µM (inactive) | > 100 µM (inactive) | > 100 µM (inactive) | > 100 µM (inactive) | > 100 µM (inactive) | > 100 µM (inactive) | > 100 µM (inactive) | > 100 µM (inactive) | > 100 µM (inactive) | > 100 µM (inactive) | > 100 µM (inactive) | > 100 µM (inactive) | > 100 µM (inactive) | > 100 µM (inactive) | > 100 µM (inactive) | > 100 µM (inactive) | > 100 µM (inactive)
COc1cc2cc3c4c(cc(OC)c(OC)c4c2cc1OC)CCN3C | 2.58 µM (inactive) | 13.1 µM (inactive) | 9.12 µM (inactive) | 9.93 µM (inactive) | 4.2 µM (inactive) | 1.36 µM (inactive) | 4.83 µM (inactive) | 2.11 µM (inactive) | 2.65 µM (inactive) | 2.41 µM (inactive) | 7.35 µM (inactive) | 6.46 µM (inactive) | 3.66 µM (inactive) | 9.53 µM (inactive) | 7.36 µM (inactive) | 12.5 µM (inactive) | 2.72 µM (inactive) | 5.3 µM (inactive) | 8.53 µM (inactive) | 7.38 µM (inactive)
C/C(=C\CO)CC[C@@H]1[C@@]2(C)CCCC(C)(C)[C@@H]2CC[C@@]1(C)O | 16.7 µM (inactive) | 18.7 µM (inactive) | 19.5 µM (inactive) | 16.7 µM (inactive) | 17.1 µM (inactive) | 20.4 µM (inactive) | 14.1 µM (inactive) | 23.4 µM (inactive) | 17.3 µM (inactive) | 51.8 µM (inactive) | 18.5 µM (inactive) | 18.3 µM (inactive) | 34.2 µM (inactive) | 29.6 µM (inactive) | 22.7 µM (inactive) | 21.3 µM (inactive) | 17.2 µM (inactive) | 20.5 µM (inactive) | 17.7 µM (inactive) | 17.5 µM (inactive)
C=C1CCc2ccccc2C1=O | > 100 µM (inactive) | 43.1 µM (inactive) | > 100 µM (inactive) | > 100 µM (inactive) | > 100 µM (inactive) | 45.8 µM (inactive) | > 100 µM (inactive) | > 100 µM (inactive) | > 100 µM (inactive) | 64.7 µM (inactive) | > 100 µM (inactive) | > 100 µM (inactive) | > 100 µM (inactive) | > 100 µM (inactive) | > 100 µM (inactive) | > 100 µM (inactive) | > 100 µM (inactive) | > 100 µM (inactive) | > 100 µM (inactive) | > 100 µM (inactive)
CC1(C)C=C(/C=C2/N(S(=O)(=O)C(F)(F)F)C(/C=C3/N(S(=O)(=O)C(F)(F)F)C(C)(C#N)CC3(C)C)=CC2(C)C)N=C1/C=C1/CC(C)(C)C(=O)N1 (stereo not given) | 5.96 µM (inactive) | 21.4 µM (inactive) | 20.6 µM (inactive) | 24.7 µM (inactive) | 23.3 µM (inactive) | 2.84 µM (inactive) | 14.4 µM (inactive) | 35.8 µM (inactive) | 20.8 µM (inactive) | 2.84 µM (inactive) | 22.7 µM (inactive) | 27.2 µM (inactive) | 23.7 µM (inactive) | 32.8 µM (inactive) | 6.93 µM (inactive) | 52.5 µM (inactive) | 3.93 µM (inactive) | 1.41 µM (inactive) | 5.79 µM (inactive) | 22.3 µM (inactive)
Cc1nc(O)nc(N/N=C/c2ccc(Cl)c(Cl)c2)c1C(=O)Nc1ccc(Cl)c(Cl)c1 | 17.1 µM (inactive) | 15.7 µM (inactive) | > 24.6 µM (inactive) | 17.9 µM (inactive) | 16.3 µM (inactive) | 8.65 µM (inactive) | 17.6 µM (inactive) | > 42.1 µM (inactive) | 18.4 µM (inactive) | 38.5 µM (inactive) | 28.4 µM (inactive) | 19.5 µM (inactive) | > 38.6 µM (inactive) | 14 µM (inactive) | 12.9 µM (inactive) | 9.59 µM (inactive) | 41.3 µM (inactive) | 45.8 µM (inactive) | 10.5 µM (inactive) | 18.1 µM (inactive)
C#CCOC(=O)C(N)CSSCC(N)C(=O)O (stereo not given) | > 100 µM (inactive) | > 100 µM (inactive) | > 100 µM (inactive) | > 100 µM (inactive) | > 100 µM (inactive) | > 100 µM (inactive) | > 100 µM (inactive) | > 100 µM (inactive) | > 100 µM (inactive) | > 100 µM (inactive) | > 100 µM (inactive) | > 100 µM (inactive) | > 100 µM (inactive) | > 100 µM (inactive) | > 100 µM (inactive) | > 100 µM (inactive) | > 100 µM (inactive) | > 100 µM (inactive) | > 100 µM (inactive) | > 100 µM (inactive)
CC(C)C[C@H](NC(=O)[C@H](Cc1ccccc1)NC(=O)CCc1ccccc1)B(O)O | < 0.01 µM (active) | < 0.01 µM (active) | < 0.01 µM (active) | < 0.01 µM (active) | 0.011 µM (active) | < 0.01 µM (active) | < 0.01 µM (active) | < 0.01 µM (active) | < 0.01 µM (active) | < 0.01 µM (active) | < 0.01 µM (active) | < 0.01 µM (active) | < 0.01 µM (active) | < 0.01 µM (active) | < 0.01 µM (active) | < 0.01 µM (active) | < 0.01 µM (active) | < 0.01 µM (active) | < 0.01 µM (active) | < 0.01 µM (active)
CC1=CC(=O)c2c(O)cccc2C1=O [PLUMBAGIN] | 1.57 µM (inactive) | 1.72 µM (inactive) | 1.81 µM (inactive) | 0.465 µM (active) | 1.76 µM (inactive) | 0.208 µM (active) | 1.94 µM (inactive) | 1.61 µM (inactive) | 3.64 µM (inactive) | 0.236 µM (active) | 6.55 µM (inactive) | 1.7 µM (inactive) | 1.6 µM (inactive) | 11.5 µM (inactive) | 1.91 µM (inactive) | 12 µM (inactive) | 0.891 µM (active) | 0.152 µM (active) | 2.17 µM (inactive) | 1.94 µM (inactive)
